From US20110105550A1 (SALIX PHARMACEUTICALS, LTD., priority 2008, published 2011) come the findings set out here.

Series [1] is described as follows: Stressing under various relative humidities (RH), solid form by XRPD. Format: physicochemical. The text has this:
The jar was sealed and stored at either ambient temperature or in an oven at elevated temperature.

Series [2] is described as follows: Rifaximin drying experiments, solid form by XRPD. In kind it is physicochemical.

Each structure is given as a SMILES string. “Also recorded” adds a separate entry of the source.

For `CO[C@H]1/C=C/O[C@@]2(C)Oc3c(C)c(O)c4c(O)c(c5c(nc6cc(C)ccn65)c4c3C2=O)NC(=O)/C(C)=C\C=C\[C@H](C)[C@H](O)[C@@H](C)[C@@H](O)[C@@H](C)[C@H](OC(C)=O)[C@@H]1C` [Form β-1], the “Final Form (XRPD)” value in series [1] (33% RH, 4 days) was “β”; in series [1] (58% RH, 3 days), “β + peak @4.87 °2θ”; in series [1] (75% RH, 3 days), “β”; in series [1] (94% RH, 3 days), “β”. Moreover, the “RH stability: solid form after exposure, 58% RH” value in series [1] (58% RH, duration not printed in Table 1, am = amorphous, listed as β-1) was “β + pk”. Further, the “RH stability: solid form after exposure, 75% RH” value in series [1] (75% RH, duration not printed in Table 1, am = amorphous, listed as β-1) is recorded as “β”. The “RH stability: solid form after exposure, 94% RH” value in series [1] (94% RH, duration not given) is “β”.
For `CO[C@H]1/C=C/O[C@@]2(C)Oc3c(C)c(O)c4c(O)c(c5c(nc6cc(C)ccn65)c4c3C2=O)NC(=O)/C(C)=C\C=C\[C@H](C)[C@H](O)[C@@H](C)[C@@H](O)[C@@H](C)[C@H](OC(C)=O)[C@@H]1C` [Form η], the “XRPD Form after drying” value in series [2] (vac oven, 40° C., 1 day) is “remained unchanged”; in series [2] (vac oven, 40° C., 1 day, listed as η) it was “η”. For the same compound, in series [2] (vacuum dried (Table 1 column), listed as η), the “Solid form after vacuum drying” value is recorded as “η”.
For the compound `CO[C@H]1/C=C/O[C@@]2(C)Oc3c(C)c(O)c4c(O)c(c5c(nc6cc(C)ccn65)c4c3C2=O)NC(=O)/C(C)=C\C=C\[C@H](C)[C@H](O)[C@@H](C)[C@@H](O)[C@@H](C)[C@H](OC(C)=O)[C@@H]1C` [Form ε, reference compound], the “XRPD Form after drying” value in series [2] (vac oven 60-65° C., 3 days, listed as ε) is given as “ε dry”.
With `CO[C@H]1/C=C/O[C@@]2(C)Oc3c(C)c(O)c4c(O)c(c5c(nc6cc(C)ccn65)c4c3C2=O)NC(=O)/C(C)=C\C=C\[C@H](C)[C@H](O)[C@@H](C)[C@@H](O)[C@@H](C)[C@H](OC(C)=O)[C@@H]1C` [Form β-2], the “XRPD Form after drying” value in series [2] (vac oven, 40° C., 1 day, listed as β-2) is “α dry”. Also, the “Solid form after vacuum drying” value in series [2] (vacuum dried (Table 1 column), listed as β-2) was “α dry”. Also, the “Final Form (XRPD)” value in series [1] (under N2 atmosphere, 20% RH, 3 days) is “α^d and α”.
Take `CO[C@H]1/C=C/O[C@@]2(C)Oc3c(C)c(O)c4c(O)c(c5c(nc6cc(C)ccn65)c4c3C2=O)NC(=O)/C(C)=C\C=C\[C@H](C)[C@H](O)[C@@H](C)[C@@H](O)[C@@H](C)[C@H](OC(C)=O)[C@@H]1C` [Form ζ]: the “XRPD Form after drying” value is “γ” in series [2] (air dry); “γ” in series [2] (open vial in hood); “γ + η” in series [2] (vac dry); “remained unchanged” in series [2] (vac oven, 40° C., 1 day); “η” in series [2] (vac oven, 45° C., 2 days); “Form η” in series [2] (vac oven, ambient, 1 day). In addition, in series [2] (vac oven, ambient, 1 day, listed as ζ), the “XRPD Form after drying” value was “η”. Besides, in series [2] (stored in refrigerator 3 weeks), the “XRPD Form after storage” value is “ζ”. The “Solid form after vacuum drying” value in series [2] (vacuum dried (Table 1)) is “η or and γ + η”. The “Final Form (XRPD)” value in series [1] (43% RH, 3 days) is “Form γ”; in series [1] (43% RH, 3 days, listed as ζ) it was “γ”; in series [1] (58% RH, 3 days) it was “Form γ-1 (ζ)”; in series [1] (75% RH, 3 days), “Form γ-1 (ζ)”; in series [1] (94% RH, 3 days) it was “Form β+γ-1 (ζ); also recorded: Form β30 γ-1 (ζ)”; in series [1] (stability chamber, 75% RH at 40° C., 1 day), “ζ + γ^e”.
As to `CO[C@H]1/C=C/O[C@@]2(C)Oc3c(C)c(O)c4c(O)c(c5c(nc6cc(C)ccn65)c4c3C2=O)NC(=O)/C(C)=C\C=C\[C@H](C)[C@H](O)[C@@H](C)[C@@H](O)[C@@H](C)[C@H](OC(C)=O)[C@@H]1C` [Form α, reference compound], the “Final Form (XRPD)” value in series [1] (P2O5, 4 days) is “α dry”.
`CO[C@H]1/C=C/O[C@@]2(C)Oc3c(C)c(O)c4c(O)c(c5c(nc6cc(C)ccn65)c4c3C2=O)NC(=O)/C(C)=C\C=C\[C@H](C)[C@H](O)[C@@H](C)[C@@H](O)[C@@H](C)[C@H](OC(C)=O)[C@@H]1C` [Form δ, reference compound]: the “Final Form (XRPD)” value in series [1] (P2O5, 3 days) is reported as “ε dry”.
